Source: patent publication US20230219962A1, “PYRAZOLO[4,3-d]PYRIMIDINE DERIVATIVES AND METHODS OF USE THEREOF FOR THE TREATMENT OF CELLULAR PROLIFERATIVE DISORDERS” (Merck Sharp & Dohme LLC, priority 2020, published 2023)
Blank lines part the entries; values can stand above or below the compound they belong to.

Key:
[1] = molecular target: T1, hTLR7 (Homo sapiens, UniProt Q9NYK1); test: Human TLR7 Reporter Assay; format: cell-based; conditions: HEK-Blue hTLR7 cells, 16 hours, normalized to CL097 (6 μM) and DMSO
T1 construct: host or cells: HEK-Blue hTLR7 cells (HEK293-derived, own knowledge)
T1 sequence (Q9NYK1 27-1049): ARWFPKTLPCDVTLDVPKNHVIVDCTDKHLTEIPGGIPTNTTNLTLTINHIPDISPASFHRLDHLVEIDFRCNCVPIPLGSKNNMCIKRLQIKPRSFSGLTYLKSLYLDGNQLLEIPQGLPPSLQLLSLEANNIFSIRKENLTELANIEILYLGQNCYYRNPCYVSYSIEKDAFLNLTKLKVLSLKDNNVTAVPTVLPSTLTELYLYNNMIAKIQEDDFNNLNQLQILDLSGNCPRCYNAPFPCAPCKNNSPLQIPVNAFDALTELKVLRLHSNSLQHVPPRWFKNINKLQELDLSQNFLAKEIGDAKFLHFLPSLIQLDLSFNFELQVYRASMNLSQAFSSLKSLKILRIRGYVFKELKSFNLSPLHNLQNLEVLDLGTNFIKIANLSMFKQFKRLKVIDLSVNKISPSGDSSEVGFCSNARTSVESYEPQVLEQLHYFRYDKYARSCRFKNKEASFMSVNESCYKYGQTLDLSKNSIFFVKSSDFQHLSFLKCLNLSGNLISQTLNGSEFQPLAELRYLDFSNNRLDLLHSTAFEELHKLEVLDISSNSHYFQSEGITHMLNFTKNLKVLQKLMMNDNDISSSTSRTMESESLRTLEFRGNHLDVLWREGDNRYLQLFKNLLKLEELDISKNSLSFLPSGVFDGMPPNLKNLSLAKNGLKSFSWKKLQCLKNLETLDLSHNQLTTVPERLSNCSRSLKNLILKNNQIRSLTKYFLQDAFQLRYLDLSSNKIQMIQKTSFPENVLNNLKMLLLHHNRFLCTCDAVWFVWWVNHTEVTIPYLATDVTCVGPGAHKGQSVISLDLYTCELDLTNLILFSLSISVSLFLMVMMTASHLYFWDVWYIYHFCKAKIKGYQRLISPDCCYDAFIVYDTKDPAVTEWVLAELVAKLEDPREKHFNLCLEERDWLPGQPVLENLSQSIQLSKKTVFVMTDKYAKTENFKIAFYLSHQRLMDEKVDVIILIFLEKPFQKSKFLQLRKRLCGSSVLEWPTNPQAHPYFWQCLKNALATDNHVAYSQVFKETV
Summary of the method: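 HEK-Blue hTLR7 reporter cells (20,000/well) incubated 16 h at 37 °C with 10-point 3-fold compound dilutions; SEAP read by absorbance at 620 nm. Effects normalized between CL097 (6 μM) and DMSO controls; EC50 from 4-parameter fit.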

[2] = molecular target: T2, hTLR8 (Homo sapiens, UniProt Q9NR97); test: Human TLR8 Reporter Assay; format: cell-based; conditions: HEK-Blue hTLR8 cells, 16 hours, normalized to tl8-506 (1 μM) and DMSO
T2 construct: host or cells: HEK-Blue hTLR8 cells (HEK293-derived, own knowledge)
T2 sequence (Q9NR97 27-1041): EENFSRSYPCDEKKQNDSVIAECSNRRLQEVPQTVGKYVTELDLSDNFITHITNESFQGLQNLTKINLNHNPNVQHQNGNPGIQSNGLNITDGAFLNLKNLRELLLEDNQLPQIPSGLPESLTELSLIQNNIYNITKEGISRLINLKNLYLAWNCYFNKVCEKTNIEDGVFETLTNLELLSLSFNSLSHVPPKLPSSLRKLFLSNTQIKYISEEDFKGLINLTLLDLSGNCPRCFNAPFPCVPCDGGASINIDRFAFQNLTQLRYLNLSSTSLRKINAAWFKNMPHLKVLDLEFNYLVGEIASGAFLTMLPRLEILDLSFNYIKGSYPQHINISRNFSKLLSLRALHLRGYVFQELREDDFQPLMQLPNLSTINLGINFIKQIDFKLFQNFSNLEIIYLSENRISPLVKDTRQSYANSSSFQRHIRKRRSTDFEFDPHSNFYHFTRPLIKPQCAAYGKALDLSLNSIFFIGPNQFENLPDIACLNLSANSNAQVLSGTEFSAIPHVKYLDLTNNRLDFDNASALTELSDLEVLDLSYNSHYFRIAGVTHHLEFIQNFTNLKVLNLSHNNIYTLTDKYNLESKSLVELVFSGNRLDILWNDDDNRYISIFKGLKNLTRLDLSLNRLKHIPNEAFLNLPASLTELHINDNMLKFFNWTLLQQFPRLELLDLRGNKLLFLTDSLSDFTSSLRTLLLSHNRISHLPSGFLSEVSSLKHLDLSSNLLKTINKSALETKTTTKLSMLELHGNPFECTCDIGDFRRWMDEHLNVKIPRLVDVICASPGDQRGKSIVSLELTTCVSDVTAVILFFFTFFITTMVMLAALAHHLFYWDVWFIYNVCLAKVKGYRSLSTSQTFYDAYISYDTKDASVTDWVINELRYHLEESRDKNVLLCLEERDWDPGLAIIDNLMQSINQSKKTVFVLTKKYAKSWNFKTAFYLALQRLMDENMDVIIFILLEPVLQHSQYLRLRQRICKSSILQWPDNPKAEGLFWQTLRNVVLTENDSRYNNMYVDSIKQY
Summary of the method: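 HEK-Blue hTLR8 cells (20,000/well) incubated 16 h at 37 °C with 10-point 3-fold compound dilutions in HEK-Blue Detection medium; reporter read as absorbance at 620 nm. Effects normalized between DMSO and tl8-506 (1 μM); EC50 from 4-parameter fit.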

- EC50 [1]: 1410 nM
- EC50 [2]: > 9980 nM
SMILES: CCCCNc1nc(N)nc2cn(C(C)c3ccccc3OC)nc12 (stereo not shown) [Compound 102]

- EC50 [1]: 2790 nM
- EC50 [2]: 3990 nM
SMILES: CCCCNc1nc(N)nc2cn(Cc3nnc(C)o3)nc12 [Compound 172]

- EC50 [1]: 409 nM
- EC50 [2]: 413 nM
SMILES: CCCCNc1nc(N)nc2cn(Cc3c(OC)cc(CN(C)CCCN)cc3OC)nc12 [Compound 141]

- EC50 [1]: 553 nM
- EC50 [2]: 3680 nM
SMILES: CCCCNc1nc(N)nc2cn(Cc3ncc(CN4C(=O)C=CC4=O)cc3OC)nc12 [Compound 110]

- EC50 [1]: 858 nM
- EC50 [2]: > 29900 nM
SMILES: COc1cccc(OC)c1Cn1cc2nc(N)nc(NCCC(C)C)c2n1 [Compound 53]

- EC50 [1]: 19 nM
- EC50 [2]: 206 nM
SMILES: CCC[C@@H](C)Nc1nc(N)nc2cn(Cc3c(OC)cccc3OC)nc12 [Compound 113]

- EC50 [1]: 2450 nM
- EC50 [2]: > 29900 nM
SMILES: COc1ccccc1Cn1cc2nc(N)nc(N3CCC(CO)C3)c2n1 (stereo not shown) [Compound 24]

- EC50 [1]: 1140 nM
- EC50 [2]: 6370 nM
SMILES: CCCCNc1nc(N)nc2cn(Cc3cncn3C)nc12 [Compound 180]

- EC50 [1]: 344 nM
- EC50 [2]: 438 nM
SMILES: CCCCNc1nc(N)nc2cn(Cc3ccc(CN4CCNCC4)cc3OC)nc12 [Compound 61]

- EC50 [1]: 665 nM
- EC50 [2]: 4900 nM
SMILES: CCCCNc1nc(N)nc2cn(Cc3ccccc3OC)nc12 [Compound 1]

- EC50 [1]: 74.4 nM
- EC50 [2]: 499 nM
SMILES: CCCCNc1nc(N)nc2cn(Cc3cccnc3OC)nc12 [Compound 100]

- EC50 [1]: 619 nM
- EC50 [2]: 48.9 nM
SMILES: CCCNC(C)c1ccc(Cn2cc3nc(N)nc(N[C@H](CO)CCC)c3n2)c(OC)c1 (stereo partly shown) [Compound 231]

The remaining lines, values behind:

SMILES: CCC(C)CNc1nc(N)nc2cn(Cc3c(OC)cccc3OC)nc12 (stereo not shown) [Compound 56]
- EC50 [1]: 369 nM
- EC50 [2]: > 9980 nM

SMILES: CCCCNc1nc(N)nc2cn(Cc3c(OC)cc(C(C)N)cc3OC)nc12 (stereo not shown) [Compound 215]
- EC50 [1]: 474 nM
- EC50 [2]: 224 nM

SMILES: CCCCNc1nc(N)nc2cn(Cc3c(OC)ccc(CCN)c3OC)nc12 [Compound 79]
- EC50 [1]: 4450 nM
- EC50 [2]: 1810 nM

SMILES: CCCCNc1nc(N)nc2cn(Cc3ccc(N4CCN(C(=O)[C@H]5CC[C@H](CN)CC5)CC4)cc3OC)nc12 [Compound 115]
- EC50 [1]: 329 nM
- EC50 [2]: 5590 nM

SMILES: CCCCNc1nc(N)nc2cn(Cc3ccc(OC)cc3)nc12 [Compound 38]
- EC50 [1]: 263 nM
- EC50 [2]: 1690 nM

SMILES: CCCCNc1nc(N)nc2cn(Cc3c(OC)cc(CN4C(=O)C=CC4=O)cc3OC)nc12 [Compound 103]
- EC50 [1]: 97.9 nM
- EC50 [2]: 422 nM

SMILES: CCCCNc1nc(N)nc2cn(Cc3sc(C)nc3C)nc12 [Compound 175]
- EC50 [1]: 112 nM
- EC50 [2]: 1110 nM

SMILES: CCCCNc1nc(N)nc2cn(Cc3ccc(CN4CCNCC4)cc3)nc12 [Compound 112]
- EC50 [1]: 1570 nM
- EC50 [2]: 19900 nM

SMILES: CCCCNc1nc(N)nc2cn(Cc3ccc(CCO)cc3OC)nc12 [Compound 128]
- EC50 [1]: 95.2 nM
- EC50 [2]: 633 nM

SMILES: CCCCNc1nc(N)nc2cn(Cc3[nH]cnc3C)nc12 [Compound 188]
- EC50 [1]: 5440 nM
- EC50 [2]: 12400 nM

SMILES: CCCCNc1nc(N)nc2cn(Cc3ncccn3)nc12 [Compound 122]
- EC50 [1]: 288 nM
- EC50 [2]: 1400 nM
